Reference: patent publication US8039439B2, “Cellular cycle anomalies for targeting oncology and neurodegeneration” (priority 2005, dated 2011)

Experiments:
LIV21 = experiment: Nuclear translocation of LIV21 in MCF-7 cells (Western blotting of extracts/fractions, immunocytochemistry); format: cell-based, human
Protocol: The results obtained by flow cytometry led the inventor to study, in parallel, the expression of LIV21 in nuclear extracts prepared after 12 h, 24 h, 48 h and 72 h of TPA treatment (FIG. 16A). […] It lasts until the reinitiation of the cell cycle observed at 72 h.
However, it is interesting to note that the expression of LIV21 already begins from 1 h of treatment in certain cells, since they are not synchronous.
The effect of the selective inhibition of the activity of PKC∈ on the nuclear translocation of LIV21 was studied by immunocytochemistry. These experiments were carried out on nontreated cultures or cultures treated for 12 h with TPA at 25 nM or with the peptide at two different concentrations, 1 and 2 μM (FIG. 20).
(§1) The protein extracts are heated at 80° C. for 5 minutes in a Laemmli buffer (pH 7.4, 0.06 M Tris, 3% SDS, 10% glycerol, 1 nM PMSF, β-mercaptoethanol). The migration is carried out by SDS-PAGE (sodium dodecyl sulfate-polyacrylamide gel electrophoresis). 10 to 20 μg of proteins migrate in a 12% polyacrylamide gel for 1 h under denaturing conditions (migration buffer: 25 mM Tris base, 192 mM glycine, 1% SDS, pH 8.3). The proteins are then transferred onto a nitrocellulose membrane (Schleicher & Schuell) for one hour by liquid transfer, in a transfer membrane (25 mM Tris, 192 mM glycine, 20% methanol, pH 8.3). The membranes, saturated in PBS-0.1% Tween-0.1% Triton X100-5% skimmed milk for one hour, are brought into contact with the primary antibody diluted in PBS-0.1% Tween-0.1% Triton X100-1% milk at ambient temperature with gentle agitation for one hour to two hours. After washing, the peroxidase-coupled secondary antibody is incubated with the membranes for 1 h. Revelation is carried out by means of a chemiluminescence reaction using the ECL kit according to the supplier's protocol (Amersham).

MCF-7 line = details: literature description; cited from earlier work
MCF-7 cells [1] = experiment: FACS analysis of cell cycle phases in TPA-treated MCF-7 cells; format: cell-based, human
Protocol: However, without any further addition of TPA, the number of cells in the S phase increases again so as to return to the initial state at 72 h of treatment. G2/M phase: The number of cells in the G2/M phase increases from the beginning of the treatment, with a maximum observed at 12 hours (FIG. 15B). G0/G1 phase: The number of cells in the G0/G1 phase is at a minimum at 6 hours and at a maximum at 24 hours (FIG. 15C).
A maximum of cells in the S phase are therefore observed in the early periods of the kinetics (0 h to 6 h), a maximum of cells in the G2/M phase is observed at 12 h and, finally, a maximum of cells in the G0/G1 phase is observed at 24 h. Finally, without any further addition of TPA, the cells return to the S phase at 72 h.

PKC∈ = PKC∈ expression in MCF-7 cells (Western blotting, immunofluorescence); format: cell-based, human; details: TPA 25 nM
Protocol: Western blotting study: Given that the protein sequence of LIV21 has putative PKC phosphorylation sites, including two specific for PKC∈, the inventor tested the variation in the expression of this PKC as a function of the duration of TPA treatment. […] The expression of PKCzeta (PKCζ) is used as an internal control since it is not sensitive to TPA.
as §1, with “Revelation is carried out by means of a chemiluminescence reaction using the ECL kit according to the supplier's protocol (Amersham).” left out

MCF-7 cells [2] = experiment: Cell growth monitoring (counting) and morphology of MCF-7 cultures with or without TPA; format: cell-based, human; details: TPA 25 nM
Protocol: It has been described in the literature that TPA induces the arrest of proliferation and the differentiation of tumor cells of the MCF-7 line. In order to validate the culture conditions, the cell growth was monitored (by counting) beforehand over three days of culture in the presence or absence of TPA at a concentration of 25 nM (FIG. 14).
However, in the period of time over which the cells were studied, the secretory phenotype (appearance of granules and of secretory canaliculi) was not observed.

Row | Compound | nuclear translocation of LIV21 (immunocytochemistry) (LIV21; peptide 1 μM, 12 h) | nuclear translocation of LIV21 (immunocytochemistry) (LIV21; peptide 2 μM, 12 h, compared with TPA 25 nM) | nuclear translocation of LIV21 (immunocytochemistry) (LIV21; peptide 2 μM, 12 h, compared with TPA 25 nM, listed as PKCε-inhibiting peptide) | LIV21 expression profile in cytoplasmic and nuclear fractions (cell fractionation, Western blot) (LIV21; peptide 2 μM, 12 h, compared with TPA-treated cultures) | proliferation of cells of human mammary tumor lines such as MCF-7 (MCF-7 line) | time of optimal reduction of the number of cells in the S phase (MCF-7 cells [1]; TPA 25 nM, single addition) [h] | time of maximum number of cells in the G0/G1 phase (MCF-7 cells [1]; TPA treatment) [h] | time of maximum number of cells in the G2/M phase (MCF-7 cells [1]; TPA treatment) [h] | time of minimum number of cells in the G0/G1 phase (MCF-7 cells [1]; TPA treatment) [h] | time at which cells reinitiate the cell cycle (MCF-7 cells [1]; after single addition of TPA) [h] | PKC∈ localization (immunofluorescence) (PKC∈; 12 h) | PKC∈ expression (Western blotting, total extracts) (PKC∈; as a function of duration of treatment) | cell morphology / differentiation (MCF-7 cells [2]) | number of cells in control cultures relative to treated cultures (MCF-7 cells [2]; after 3 days of treatment) | cell proliferation (cell counts) (MCF-7 cells [2]; three days of culture) | colocalization of PML and LIV21 (double labeling) (LIV21; 24 h of TPA treatment (25 nM)) | time of maximum nuclear translocation of LIV21 (immunocytochemistry) (LIV21; TPA 25 nM) [h] | anti-LIV21 immunoreactivity in nuclear extracts (Western blot) (LIV21; TPA 25 nM, 12 h, 24 h, 48 h and 72 h)
1 | EAVSLKPT (listed as Homo sapiens) [PKC∈-inhibiting peptide] | absence of nuclear translocation of LIV21 | effect identical to that of TPA | same effectiveness as | same LIV21 expression profile | – | – | – | – | – | – | – | – | – | – | – | – | – | –
2 | CCCCCCCCCCCCCC(=O)O[C@@H]1[C@@H](C)[C@@]2(O)[C@@H](C=C(CO)C[C@]3(O)C(=O)C(C)=C[C@@H]23)[C@H]2C(C)(C)[C@]12OC(C)=O [TPA] | – | – | – | – | drastically inhibits the proliferation | 12 | 24 | 12 | 6 | 72 | disappears from the cytoplasm | decreases from 30 min | rapidly acquire characteristics of differentiated mammary gland cells | twice as many cells | clearly inhibits proliferation | colocalized in the nuclei | 12 | maximum anti-LIV21 immunoreactivity was observed from 12 h, was maintained up to 48 h
